Assay results from PMC8244818 (Journal of medicinal chemistry, 2021).

Tests used:
Plasmodium yoelii = format: in vivo; details: P. yoelii, CF1 mice, oral gavage in PEG-400, 5 mg/kg × 4 days
[1] = ref 34 (2), ref 35 (6); cited from earlier work
[2] = cited from earlier work

Row | Compound | in vivo %parasitemia reduction on day 5 at 5 mg/kg/4d (Plasmodium yoelii) | antimicrobial activity [1] | cytotoxicity activity [2]
1 | COC1=CC2=N/C1=C\NCC/C=C/CCCCCCCCc1ccc2[nH]1.Cl [(E/Z)-7, geometric isomers of Tambjamine MYP1] | ineffective |  | 
2 | CCCCCc1cc(/C=C2\N=C(c3ccc(Cc4ccc(O)cc4)[nH]3)C=C2OC)[nH]c1C.Cl [Compound 2, 4-((4’-Methoxy-5’-((5-methyl-4-pentyl-1H-pyrrol-2-yl)methylene)-1H,5’H-[2,2’-bipyrrol]-5-yl)methyl)phenol] | did not show efficacy | good | good
3 | CCCCc1cc(/C=C2\N=C(c3ccc(Cc4ccc(O)cc4)[nH]3)C=C2OC)[nH]c1C.Cl [Compound 3, 4-((5’-((4-Butyl-5-methyl-1H-pyrrol-2-yl)methylene)-4’-methoxy-1H,5’H-[2,2’-bipyrrol]-5-yl)methyl)phenol] | did not show efficacy |  | 
4 | COC1=CC(c2ccc[nH]2)=N/C1=C\c1cc(CCCCC(C)C)c(C)[nH]1.Cl [Compound 6, Isoheptylprodigiosin] |  | moderate | 
5 | C=CCCCCCCCCc1ccc(C2=N/C(=C\NCCC=C)C(OC)=C2)[nH]1.Cl [Compound 39, N-((5-(dec-9-en-1-yl)-4’-methoxy-1H,5’H-[2,2’-bipyrrol]-5’-ylidene)methyl)but-3-en-1-amine] | ineffective |  | 
